Reference: patent US20240254143A1, “OREXIN RECEPTOR AGONISTS AND USES THEREOF” (JAZZ PHARMACEUTICALS IRELAND LIMITED, priority 2021, published 2024)

Target: T1, human recombinant OX2 (hOX2) receptor (Homo sapiens, UniProt O43614)
T1 construct: host or cells: CHO cells
T1 sequence (O43614 1-444): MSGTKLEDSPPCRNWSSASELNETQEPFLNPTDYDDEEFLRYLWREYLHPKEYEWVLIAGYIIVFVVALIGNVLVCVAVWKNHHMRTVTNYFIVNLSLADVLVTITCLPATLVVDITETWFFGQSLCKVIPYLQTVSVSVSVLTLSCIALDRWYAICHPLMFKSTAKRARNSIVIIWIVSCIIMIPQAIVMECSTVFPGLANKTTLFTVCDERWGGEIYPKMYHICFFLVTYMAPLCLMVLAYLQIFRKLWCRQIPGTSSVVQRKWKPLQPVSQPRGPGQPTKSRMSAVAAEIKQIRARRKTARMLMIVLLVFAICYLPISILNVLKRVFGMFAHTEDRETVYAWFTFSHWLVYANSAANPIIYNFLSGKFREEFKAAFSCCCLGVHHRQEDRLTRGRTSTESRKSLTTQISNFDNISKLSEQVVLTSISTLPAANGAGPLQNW
Test: IP-1 accumulation assay (IP-One HTRF) in hOX2-CHO cells
Format: cell-based
Conditions: 60 min at 37° C., mean of at least two independent experiments, read-out: EC50_OX2R Category
Summary of the method: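 hOX2 receptor expressed in CHO cells, seeded in suspension in HBSS with 20 mM HEPES pH 7.4, LiCl and 0.1% BSA; compounds tested as 11-point CRC (0.5% DMSO final), 60 min at 37 °C. IP-1 read by HTRF (665/615 ratio) after 60 min lysis at room temperature; response as % of maximal OX-A response, EC50 by four-parameter logistic fit, mean of ≥2 experiments in duplicate.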

CCNC(=O)N1C[C@@H](C)C2(COCC(=O)N2)C1Cc1cccc(-c2cc(F)cc(F)c2)c1F (mixture of isomers) [Example 70, rel-(1S,5S)-(4S)-N-ethyl-4-methyl-7-oxo-1-({2,3′,5′-trifluoro-[1,1′-biphenyl]-3-yl}methyl)-9-oxa-2,6-diazaspiro[4.5]decane-2-carboxamide]
EC50: 1 to 10 µM
